Consider 21 molecules from patent US9428503B2, “Imidazo[4,5-c]quinolin-2-one compounds and their use in treating Cancer” (AstraZeneca AB, priority 2014, dated 2016).

Structures can show the parent of a compound that is named as a salt.

Common to all, as to format: cell-based
One assay has as its target mTOR (Homo sapiens (Human), UniProt P42345). Nature of the assay: Assay d) mTOR cellular potency assay (phospho-AKT Ser473 in MDA-MB-468 cells). The following applies: MDA-MB-468 cells, phospho-AKT Ser473, 2 h; geometric mean where repeated; read-out: Assay d) mTOR Cell IC50.
The target of the next assay is PI3K-α (Homo sapiens, UniProt P42336). Nature of the assay: Assay c) PI3K cellular potency assay (phospho-Akt T308 ELISA in BT474 cells). The following applies: BT474 cells, phospho-Akt T308, 2 h; geometric mean where repeated; read-out: Assay c) PI3Kα Cell IC50. On the technique in general: An ELISA detects its analyte on a solid surface through an enzyme-linked reagent.

The target of the next assay is ATM kinase (Homo sapiens (Human), UniProt Q13315). Nature of the assay: Assay a) ATM cellular potency assay (pATM Ser1981 in X-ray irradiated HT29 cells). The following applies: HT29 cells, pATM Ser1981 after X-ray irradiation; geometric mean where repeated; read-out: Assay a) ATM Cell IC50.
The next assay deals with ATR kinase (Homo sapiens (Human), UniProt Q13535). Kind of assay: Assay b) ATR cellular potency assay (pChk1 Ser345 in HT29 cells treated with 4NQO). The settings on record: HT29 cells, pChk1 Ser345 after 4NQO; geometric mean where repeated; read-out: Assay b) ATR Cell IC50.
ATR kinase, sequence (Q13535 whole entry): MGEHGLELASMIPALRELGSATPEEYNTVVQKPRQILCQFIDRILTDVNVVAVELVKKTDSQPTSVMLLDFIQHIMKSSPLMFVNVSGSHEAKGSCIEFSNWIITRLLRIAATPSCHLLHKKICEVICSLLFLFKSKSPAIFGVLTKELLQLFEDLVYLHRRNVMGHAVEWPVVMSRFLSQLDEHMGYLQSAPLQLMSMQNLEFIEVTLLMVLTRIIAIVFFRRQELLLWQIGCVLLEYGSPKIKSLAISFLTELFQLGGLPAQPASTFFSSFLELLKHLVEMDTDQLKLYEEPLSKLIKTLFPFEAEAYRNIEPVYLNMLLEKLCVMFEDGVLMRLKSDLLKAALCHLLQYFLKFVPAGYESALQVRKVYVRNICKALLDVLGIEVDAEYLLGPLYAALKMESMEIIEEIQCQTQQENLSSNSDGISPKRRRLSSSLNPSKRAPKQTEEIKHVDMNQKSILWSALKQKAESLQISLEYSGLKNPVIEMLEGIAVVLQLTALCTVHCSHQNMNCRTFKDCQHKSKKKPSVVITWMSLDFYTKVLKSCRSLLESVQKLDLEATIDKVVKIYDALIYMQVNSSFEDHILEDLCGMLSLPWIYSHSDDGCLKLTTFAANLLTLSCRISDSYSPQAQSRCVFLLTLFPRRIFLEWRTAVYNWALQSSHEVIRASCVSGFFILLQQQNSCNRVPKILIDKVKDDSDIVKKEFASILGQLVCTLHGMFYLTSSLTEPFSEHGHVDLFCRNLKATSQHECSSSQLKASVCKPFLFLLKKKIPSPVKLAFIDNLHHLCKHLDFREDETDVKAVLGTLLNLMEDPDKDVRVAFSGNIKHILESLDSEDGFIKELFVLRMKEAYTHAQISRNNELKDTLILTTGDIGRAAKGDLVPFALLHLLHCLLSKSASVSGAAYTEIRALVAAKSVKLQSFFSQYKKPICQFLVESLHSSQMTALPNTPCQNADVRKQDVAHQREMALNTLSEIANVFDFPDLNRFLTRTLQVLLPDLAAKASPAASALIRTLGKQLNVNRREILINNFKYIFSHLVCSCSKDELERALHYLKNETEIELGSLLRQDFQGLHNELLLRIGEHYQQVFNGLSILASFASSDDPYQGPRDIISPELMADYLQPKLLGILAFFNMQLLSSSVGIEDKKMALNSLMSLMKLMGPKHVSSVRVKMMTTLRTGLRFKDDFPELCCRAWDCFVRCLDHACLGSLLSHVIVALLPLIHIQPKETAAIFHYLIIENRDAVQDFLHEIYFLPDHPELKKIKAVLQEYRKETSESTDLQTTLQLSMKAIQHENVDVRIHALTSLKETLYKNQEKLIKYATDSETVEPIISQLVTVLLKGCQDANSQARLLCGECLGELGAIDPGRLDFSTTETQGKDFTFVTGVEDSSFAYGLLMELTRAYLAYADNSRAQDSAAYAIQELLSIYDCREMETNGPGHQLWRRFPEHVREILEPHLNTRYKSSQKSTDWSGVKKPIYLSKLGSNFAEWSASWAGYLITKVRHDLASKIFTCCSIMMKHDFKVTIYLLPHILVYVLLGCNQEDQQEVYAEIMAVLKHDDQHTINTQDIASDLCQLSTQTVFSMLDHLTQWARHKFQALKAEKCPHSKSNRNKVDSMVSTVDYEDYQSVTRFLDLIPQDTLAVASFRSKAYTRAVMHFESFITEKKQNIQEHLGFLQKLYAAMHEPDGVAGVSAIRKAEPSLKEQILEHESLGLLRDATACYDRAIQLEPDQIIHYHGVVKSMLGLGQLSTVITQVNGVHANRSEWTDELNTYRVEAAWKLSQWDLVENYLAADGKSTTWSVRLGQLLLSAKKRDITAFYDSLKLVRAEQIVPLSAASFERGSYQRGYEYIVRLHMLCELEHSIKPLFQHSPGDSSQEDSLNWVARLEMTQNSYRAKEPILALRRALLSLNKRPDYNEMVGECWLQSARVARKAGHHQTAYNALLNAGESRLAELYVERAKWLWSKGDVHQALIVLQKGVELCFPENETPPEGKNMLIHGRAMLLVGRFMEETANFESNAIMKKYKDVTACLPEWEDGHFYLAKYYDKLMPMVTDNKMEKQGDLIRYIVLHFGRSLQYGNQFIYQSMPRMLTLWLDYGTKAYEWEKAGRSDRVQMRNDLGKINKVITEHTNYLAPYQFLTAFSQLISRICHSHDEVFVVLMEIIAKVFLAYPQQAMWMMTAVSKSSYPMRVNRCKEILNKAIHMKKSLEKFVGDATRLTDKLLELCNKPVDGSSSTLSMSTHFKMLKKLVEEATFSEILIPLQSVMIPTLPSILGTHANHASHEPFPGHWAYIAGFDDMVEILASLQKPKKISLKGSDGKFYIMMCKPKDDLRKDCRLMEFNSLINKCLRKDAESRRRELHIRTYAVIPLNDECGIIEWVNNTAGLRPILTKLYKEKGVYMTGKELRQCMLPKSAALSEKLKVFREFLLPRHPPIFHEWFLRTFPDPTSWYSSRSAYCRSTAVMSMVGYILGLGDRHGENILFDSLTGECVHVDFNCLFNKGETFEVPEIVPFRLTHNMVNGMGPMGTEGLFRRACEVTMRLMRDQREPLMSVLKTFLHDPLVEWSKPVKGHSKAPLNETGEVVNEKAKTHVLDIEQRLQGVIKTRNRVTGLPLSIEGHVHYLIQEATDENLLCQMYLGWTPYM
ATR kinase, sequence (Q8WXE1 whole entry partner): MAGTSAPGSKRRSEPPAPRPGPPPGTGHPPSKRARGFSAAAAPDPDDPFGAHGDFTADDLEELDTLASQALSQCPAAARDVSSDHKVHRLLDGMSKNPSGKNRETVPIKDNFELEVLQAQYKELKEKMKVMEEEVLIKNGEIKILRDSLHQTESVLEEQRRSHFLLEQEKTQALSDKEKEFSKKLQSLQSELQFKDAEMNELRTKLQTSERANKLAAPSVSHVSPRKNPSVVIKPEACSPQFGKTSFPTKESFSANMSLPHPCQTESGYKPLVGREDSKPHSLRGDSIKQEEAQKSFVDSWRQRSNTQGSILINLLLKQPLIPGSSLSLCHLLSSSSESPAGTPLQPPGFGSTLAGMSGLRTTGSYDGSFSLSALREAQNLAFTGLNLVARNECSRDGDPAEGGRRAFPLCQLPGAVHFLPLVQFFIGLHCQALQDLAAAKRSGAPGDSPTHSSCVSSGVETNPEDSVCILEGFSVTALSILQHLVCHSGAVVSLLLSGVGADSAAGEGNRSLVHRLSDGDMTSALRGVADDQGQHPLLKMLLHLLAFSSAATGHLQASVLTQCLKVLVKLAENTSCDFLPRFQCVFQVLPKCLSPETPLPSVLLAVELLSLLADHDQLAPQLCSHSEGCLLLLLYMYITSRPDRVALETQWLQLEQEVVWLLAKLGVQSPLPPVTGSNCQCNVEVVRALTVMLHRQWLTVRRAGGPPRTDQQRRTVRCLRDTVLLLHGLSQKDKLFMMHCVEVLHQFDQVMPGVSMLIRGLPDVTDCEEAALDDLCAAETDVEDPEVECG

PI3K-α, sequence (P42336 whole entry, looked up): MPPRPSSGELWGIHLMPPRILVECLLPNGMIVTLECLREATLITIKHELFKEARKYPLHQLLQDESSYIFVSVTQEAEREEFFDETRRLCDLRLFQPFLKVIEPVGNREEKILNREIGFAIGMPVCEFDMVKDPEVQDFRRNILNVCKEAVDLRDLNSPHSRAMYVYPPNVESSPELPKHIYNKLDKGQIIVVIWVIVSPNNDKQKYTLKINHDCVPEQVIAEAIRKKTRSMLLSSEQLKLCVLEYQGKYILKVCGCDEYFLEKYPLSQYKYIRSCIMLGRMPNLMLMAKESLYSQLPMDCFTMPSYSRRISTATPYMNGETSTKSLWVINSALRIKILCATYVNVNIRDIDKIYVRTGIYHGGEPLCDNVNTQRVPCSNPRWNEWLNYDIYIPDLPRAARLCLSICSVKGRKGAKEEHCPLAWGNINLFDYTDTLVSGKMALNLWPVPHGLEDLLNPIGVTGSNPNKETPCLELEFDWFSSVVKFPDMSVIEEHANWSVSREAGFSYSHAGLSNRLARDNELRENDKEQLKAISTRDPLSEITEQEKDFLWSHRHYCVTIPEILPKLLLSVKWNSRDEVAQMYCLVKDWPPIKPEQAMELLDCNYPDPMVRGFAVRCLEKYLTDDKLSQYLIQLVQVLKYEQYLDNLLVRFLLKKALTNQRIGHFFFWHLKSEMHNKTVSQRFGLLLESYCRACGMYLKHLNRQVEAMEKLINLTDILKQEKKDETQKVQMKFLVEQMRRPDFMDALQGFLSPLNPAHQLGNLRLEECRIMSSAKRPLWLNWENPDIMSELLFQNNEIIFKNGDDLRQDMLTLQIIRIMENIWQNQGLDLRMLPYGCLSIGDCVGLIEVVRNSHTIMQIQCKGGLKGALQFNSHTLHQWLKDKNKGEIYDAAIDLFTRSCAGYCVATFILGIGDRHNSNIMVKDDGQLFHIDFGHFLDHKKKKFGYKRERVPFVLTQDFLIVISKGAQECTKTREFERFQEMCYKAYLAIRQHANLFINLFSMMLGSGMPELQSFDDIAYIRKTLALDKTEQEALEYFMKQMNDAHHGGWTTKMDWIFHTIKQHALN

On to `CO[C@@H]1CC[C@H](n2c(=O)n(C)c3cnc4cc(F)c(-c5ccc(OCCCN(C)C)nc5)cc4c32)C1` [Example 71, 8-[6-[3-(dimethylamino)propoxy]-3-pyridyl]-7-fluoro-1-[(1S,3R)-3-methoxycyclopentyl]-3-methyl-imidazo[4,5-c]quinolin-2-one], for which the half-inhibitory concentration (IC50) on mTOR was 15200 nM; on PI3K-α it was more than 11400 nM; on ATM kinase, 1.45 nM; at ATR kinase, more than 30000 nM.

Turning to `CO[C@H]1CC[C@@H](n2c(=O)n(C)c3cnc4cc(F)c(-c5ccc(OCCCN(C)C)nc5)cc4c32)C1` [Example 70, 8-[6-[3-(dimethylamino)propoxy]-3-pyridyl]-7-fluoro-1-[(1R,3S)-3-methoxycyclopentyl]-3-methyl-imidazo[4,5-c]quinolin-2-one], the IC50 on mTOR is more than 30000 nM; at PI3K-α it was more than 30000 nM; at ATM kinase, 2.43 nM; at ATR kinase it was more than 24900 nM.

In the case of `Cn1c(=O)n([C@H]2CCCOC2)c2c3cc(-c4ccc(OCCCN5CCCCC5)nc4)c(F)cc3ncc21` [Example 47, 7-Fluoro-3-methyl-8-[6-[3-(1-piperidyl)propoxy]-3-pyridyl]-1-[(3S)-tetrahydropyran-3-yl]imidazo[4,5-c]quinolin-2-one methanesulfonic acid salt], the IC50 was more than 30000 nM on mTOR, more than 23500 nM at PI3K-α, 0.799 nM at ATM kinase and more than 30000 nM on ATR kinase.

For the molecule `CN(C)CCCOc1ccc(-c2ccc3ncc4[nH]c(=O)n(C5CCOCC5)c4c3c2)cn1` [Example 13, 8-[6-(3-dimethylaminopropoxy)pyridin-3-yl]-1-(oxan-4-yl)-3H-imidazo[4,5-c]quinolin-2-one], the IC50 on mTOR is 248 nM; at PI3K-α, 1520 nM; on ATM kinase, 3.22 nM; at ATR kinase, more than 30000 nM.

Take `CN(C)CCCOc1ccc(-c2ccc3ncc4c(c3c2)n([C@@H]2CCOC2)c(=O)n4C)cn1` [Example 44, 8-[6-[3-(Dimethylamino)propoxy]-3-pyridyl]-3-methyl-1-[(3R)-tetrahydrofuran-3-yl]imidazo[4,5-c]quinolin-2-one methanesulfonic acid salt]: the half-inhibitory concentration (IC50) is 2370 nM at mTOR, 560 nM at PI3K-α, 1.07 nM on ATM kinase and more than 19200 nM on ATR kinase.

`Cn1c(=O)n([C@@H]2CCCOC2)c2c3cc(-c4ccc(OCCCN5CCCCC5)nc4)ccc3ncc21` [Example 32, 3-methyl-1-[(3R)-oxan-3-yl]-8-[6-(3-piperidin-1-ylpropoxy)pyridin-3-yl]imidazo[5,4-c]quinolin-2-one]: the concentration for half-maximal inhibition (IC50) was 6100 nM at mTOR, 2940 nM at PI3K-α, 1.78 nM on ATM kinase and more than 30000 nM on ATR kinase.

Take `Cn1c(=O)n([C@H]2CCCOC2)c2c3cc(-c4ccc(OCCCN5CCCC5)nc4)c(F)cc3ncc21` [Example 23, 7-fluoro-3-methyl-8-[6-(3-pyrrolidin-1-ylpropoxy)-3-pyridyl]-1-[(3S)-tetrahydropyran-3-yl]imidazo[4,5-c]quinolin-2-one]: the half-maximal inhibitory concentration (IC50) on mTOR is 18200 nM; on PI3K-α it was more than 30000 nM; on ATM kinase, 0.563 nM; at ATR kinase, more than 30000 nM.

For the molecule `CNCCCOc1ccc(-c2ccc3ncc4c(c3c2)n(C2CCOCC2)c(=O)n4C)cn1` [Example 40, 3-Methyl-8-[6-(3-methylaminopropoxy)pyridin-3-yl]-1-(oxan-4-yl)imidazo[5,4-c]quinolin-2-one], the concentration for half-maximal inhibition (IC50) on mTOR is 191 nM; at PI3K-α it was 184 nM; at ATM kinase it was 0.567 nM; on ATR kinase, 1330 nM.

With `Cn1c(=O)n([C@H]2C[C@@H](O)C2)c2c3cc(-c4ccc(OCCCN5CCCC5)nc4)ccc3ncc21` [Example 15, 1-(cis-3-hydroxycyclobutyl)-3-methyl-8-[6-(3-pyrrolidin-1-ylpropoxy)pyridin-3-yl]imidazo[4,5-c]quinolin-2-one], the IC50 is 2580 nM at mTOR, 2390 nM at PI3K-α, 0.447 nM at ATM kinase and more than 30000 nM on ATR kinase.

On to `CO[C@H]1C[C@@H](n2c(=O)n(C)c3cnc4cc(F)c(-c5ccc(OCCCN(C)C)nc5F)cc4c32)C1` [Example 19, 8-[6-(3-dimethylaminopropoxy)-2-fluoropyridin-3-yl]-7-fluoro-1-(cis-3-methoxycyclobutyl)-3-methylimidazo[4,5-c]quinolin-2-one], for which the concentration for half-maximal inhibition (IC50) is 13700 nM at mTOR, more than 28000 nM at PI3K-α, 2.62 nM on ATM kinase and more than 30000 nM on ATR kinase.

For the molecule `Cn1c(=O)n(C2COC2)c2c3cc(-c4ccc(OCCCN5CCCCC5)nc4)ccc3ncc21` [Example 56, 3-methyl-1-(oxetan-3-yl)-8-[6-[3-(1-piperdyl)propoxy]-3-pyridyl]imidazo[4,5-c]quinolin-2-one trifluoroacetic acid salt], the half-maximal inhibitory concentration (IC50) on mTOR was 12400 nM; on PI3K-α, more than 26300 nM; on ATM kinase, 3.02 nM; at ATR kinase, more than 30000 nM.

With `Cn1c(=O)n([C@@H]2CCCOC2)c2c3cc(-c4ccc(OCCCN5CCCC5)nc4)c(F)cc3ncc21` [Example 24, 7-fluoro-3-methyl-8-[6-(3-pyrrolidin-1-ylpropoxy)-3-pyridyl]-1-[(3R)-tetrahydropyran-3-yl]imidazo[4,5-c]quinolin-2-one], the half-inhibitory concentration (IC50) on mTOR was more than 9430 nM; on PI3K-α it was 7290 nM; on ATM kinase it was 0.69 nM; at ATR kinase, more than 18800 nM.

`CO[C@H]1CC[C@H](n2c(=O)n(C)c3cnc4cc(F)c(-c5ccc(OCCCN(C)C)nc5)cc4c32)C1` [Example 63, 8-[6-[3-(Dimethylamino)propoxy]-3-pyridyl]-7-fluoro-1-[(1S,3S)-3-methoxycyclopentyl]-3-methyl-imidazo[4,5-c]quinolin-2-one]: the IC50 at mTOR is 10800 nM; on PI3K-α, 3280 nM; at ATM kinase it was 0.31 nM; at ATR kinase, more than 30000 nM.

As to `O=c1[nH]c2cnc3ccc(-c4ccc(OCCCN5CCCCC5)nc4)cc3c2n1C1CCOCC1` [Example 36, 1-(oxan-4-yl)-8-[6-(3-piperidin-1-ylpropoxy)pyridin-3-yl]-3H-imidazo[4,5-c]quinolin-2-one], the IC50 at mTOR is 10600 nM; at PI3K-α, more than 25000 nM; on ATM kinase it was 3.01 nM; on ATR kinase it was more than 30000 nM.

Take `CO[C@H]1C[C@@H](n2c(=O)n(C)c3cnc4ccc(-c5ccc(OCCCN6CCC6)nc5)cc4c32)C1` [Example 38, 8-[6-[3-(azetidin-1-yl)propoxy]pyridin-3-yl]-1-(cis-3-methoxycyclobutyl)-3-methylimidazo[4,5-c]quinolin-2-one]: the IC50 on mTOR is 2240 nM; on PI3K-α it was 729 nM; on ATM kinase, 0.292 nM; at ATR kinase, more than 24400 nM.

As for `CN(C)CCCOc1ccc(-c2cc3c(cc2F)ncc2c3n(C3CCOCC3)c(=O)n2C)cn1` [Example 8, 8-[6-(3-dimethylaminopropoxy)pyridin-3-yl]-7-fluoro-3-methyl-1-(oxan-4-yl)imidazo[5,4-c]quinolin-2-one], the IC50 on mTOR was 14000 nM; at PI3K-α it was 18100 nM; at ATM kinase, 0.782 nM; at ATR kinase, more than 30000 nM.

For the molecule `Cn1c(=O)n([C@H]2C[C@@H](O)C2)c2c3cc(-c4ccc(OCCCN5CCC5)nc4)ccc3ncc21` [Example 14, 8-[6-[3-(azetidin-1-yl)propoxy]pyridin-3-yl]-1-(cis-3-hydroxycyclobutyl)-3-methylimidazo[4,5-c]quinolin-2-one], the half-maximal inhibitory concentration (IC50) was 1040 nM at mTOR, 616 nM at PI3K-α, 1.05 nM at ATM kinase and more than 30000 nM at ATR kinase.

Regarding `CN(C)CCCOc1ccc(-c2ccc3ncc4c(c3c2)n([C@H]2CCOC2)c(=O)n4C)cn1` [Example 45, 8-[6-[3-(dimethylamino)propoxy]-3-pyridyl]-3-methyl-1-[(3S)-tetrahydrofuran-3-yl]imidazo[4,5-c]quinolin-2-one methanesulfonic acid salt], the IC50 at mTOR was 1190 nM; on PI3K-α, 260 nM; at ATM kinase, less than 0.534 nM; at ATR kinase it was 9600 nM.

As for `CN(C)CCCOc1ccc(-c2cc3c(cc2F)ncc2c3n([C@H]3CCCOC3)c(=O)n2C)c(F)n1` [Example 48, 8-[6-[3-(Dimethylamino)propoxy]-2-fluoro-3-pyridyl]-7-fluoro-3-methyl-1-[(3S)-tetrahydropyran-3-yl]imidazo[4,5-c]quinolin-2-one methanesulfonic acid salt], the IC50 on mTOR is 23000 nM; at PI3K-α, more than 9400 nM; at ATM kinase it was 1.02 nM; at ATR kinase it was more than 30000 nM.

As to `CN(C)CCCOc1ccc(-c2ccc3ncc4c(c3c2)n([C@H]2CCCOC2)c(=O)n4C)c(F)n1` [Example 20, 8-[6-(3-dimethylaminopropoxy)-2-fluoropyridin-3-yl]-3-methyl-1-[(3S)-oxan-3-yl]imidazo[5,4-c]quinolin-2-one], the IC50 at mTOR was 529 nM; on PI3K-α, 1030 nM; at ATM kinase, 0.365 nM; on ATR kinase it was more than 30000 nM.

With `CN(C)CCCOc1ccc(-c2ccc3ncc4c(c3c2)n(C2(C)CCOCC2)c(=O)n4C)cn1` [Example 7, 8-[6-(3-dimethylaminopropoxy)pyridin-3-yl]-3-methyl-1-(4-methyloxan-4-yl)imidazo[5,4-c]quinolin-2-one], the IC50 at mTOR was 266 nM; at PI3K-α, 541 nM; on ATM kinase it was 0.96 nM; at ATR kinase it was 10800 nM.

For orientation: IC50 means the midpoint of a concentration-inhibition curve.
